Results published in publication PMC12541891 (MicrobiologyOpen, 2025).
In brackets after ≈: the same amount, converted by molar mass. Several values for one entry are separate records, joined by “and”; a condition that tells them apart may be missing. Equal entries are not always repeated.

Legend:
[1] = tested on: methicillin resistant S. aureus (MRSA); assay: MIC and MBC by microbroth dilution; format: cell-based; details: Staphylococcus aureus
Method: (§1) No substance was added, in one well, for growth control. A bacterial suspension of 1 × 10^8 CFU/mL was inoculated into all wells of the plate and incubated for 24 h at 37°C. […] The dilutions ranged from 4 to 2000 µg/mL for the substances. The inoculum size was about 2.5×10^3 cells/mL. The plates were incubated at 28°C for 24–48 h. The MIC was determined as the lowest substances' concentration where no visible bacterial or fungal growth was observed. […] Each antimicrobial assay was performed in triplicate.

[2] = tested on: Escherichia coli MG1655 (ATCC 700926); assay: MIC and MBC by microbroth dilution; format: cell-based
Method: as §1

[3] = tested on: Staphylococcus aureus ATCC 6538; assay: MIC and MBC by microbroth dilution; format: cell-based
Method: as §1

[4] = tested on: Extended Spectrum-Beta-Lactamase producing E. coli (ESBL-Ec); assay: MIC and MBC by microbroth dilution; format: cell-based; details: Escherichia coli
Method: as §1

C. glabrata biofilm [5] = assay: Biofilm biomass by crystal violet (CV) assay; format: cell-based, Candida glabrata
Method: (§2) For all bacterial strains considered in the study, biofilm was performed on a 96‐well plate inoculated with 200 µL of a bacterial suspension 1 × 10^6 CFU/mL and incubated 24 h at 37°C. After incubation for 4 h at 37°C, the medium was aspirated, non‐adherent cells were removed, washed with PBS and added with 200 µL of fresh medium. […] Similarly, to perform fungal biofilm, the different Candida species were grown for 24 h at 28°C on a multi‐wells plate, washed twice with sterile PBS, and then resuspended at 37°C in RPMI 1640 plus 10% FBS at 2.5 × 10^7 cells. After incubation for 3 h at 37°C in six‐well polystyrene plates, the medium was aspirated, non‐adherent cells were removed and washed with PBS.
(§3) To quantify bacterial and Candida biofilm biomass, CV, a dye able to color the biofilm matrix, was used. Firstly, after the removal of supernatant and washing with PBS, biofilm was fixed adding 100 µL of 99% methanol for 15 min. Then, methanol was rinsed off and the plates were air‐dried. Subsequently, 100 µL of a 0.1% of CV solution were added to wells and, after 20 min of contact, the plates were washed under running tap water. To dissolve the bounded CV, 150 µL of 33% of glacial acetic acid were added to wells. The absorbance was measured at 590 nm using an automatic microplate reader, Tecan Sunrise (Tecan Group Ltd., Männedorf, Switzerland).

C. tropicalis biofilm [6] = assay: Biofilm biomass by crystal violet (CV) assay; format: cell-based, Candida tropicalis
Method: as §2, §3

C. krusei biofilm = assay: Biofilm biomass by crystal violet (CV) assay; format: cell-based, Candida krusei; details: substance alone at MIC
Method: as §2, §3

C. tropicalis biofilm [7] = assay: Biofilm metabolic activity by XTT-reduction assay; format: cell-based, Candida tropicalis
Method: as §2
(§4) The biofilm metabolic activity was evaluated by XTT assay, that highpoints the activity through the reduction of the tetrazolium salt to formazan. After the removal of supernatant and washing with PBS, a solution of XTT‐menadione solution were added to wells. The XTT‐menadione was prepared dissolving XTT powder in prewarmed PBS (37°C) at 0.5 g/L. The solution was sterilized through a 0.22 μm pore size filter. Before each assay, the XTT solution was thawed and supplemented with menadione, a 10 mM stock dissolved in acetone to a final concentration 1 μM. Plates were incubated for 3 h at 37°C in the dark and then the absorbance was measured at 492 nm using the microplate reader, Tecan Sunrise.

E. coli biofilm [8] = assay: Biofilm metabolic activity by XTT-reduction assay; format: cell-based, Escherichia coli; details: substance alone at MIC
Method: as §2, §4

ESBL-Ec biofilm [9] = assay: Biofilm metabolic activity by XTT-reduction assay; format: cell-based, Escherichia coli; details: substance alone at MIC
Method: as §2, §4

E. coli biofilm [10] = assay: Biofilm biomass by crystal violet (CV) assay; format: cell-based, Escherichia coli; details: substance alone at MIC
Method: as §2, §3

ESBL-Ec biofilm [11] = assay: Biofilm biomass by crystal violet (CV) assay; format: cell-based, Escherichia coli; details: substance alone at MIC
Method: as §2, §3

C. albicans biofilm [12] = assay: Biofilm biomass by crystal violet (CV) assay; format: cell-based, Candida albicans
Method: as §2, §3

C. krusei 44956 = assay: MIC and MFC by microbroth dilution; format: cell-based, Candida krusei; details: Pichia kudriavzevii, 44956
Method: as §1

MRSA biofilm [13] = assay: Biofilm metabolic activity by XTT-reduction assay; format: cell-based, Staphylococcus aureus; details: substance alone at MIC
Method: as §2, §4

S. aureus biofilm [14] = assay: Biofilm metabolic activity by XTT-reduction assay; format: cell-based, Staphylococcus aureus; details: substance alone at MIC
Method: as §2, §4

C. glabrata biofilm [15] = assay: Biofilm metabolic activity by XTT-reduction assay; format: cell-based, Candida glabrata
Method: as §2, §4

C. glabrata DSY562 = assay: MIC and MFC by microbroth dilution; format: cell-based, Candida glabrata; details: Nakaseomyces glabratus, DSY562
Method: as §1

C. albicans biofilm [16] = assay: Biofilm metabolic activity by XTT-reduction assay; format: cell-based, Candida albicans
Method: as §2, §4

C. tropicalis 45,615 = assay: MIC and MFC by microbroth dilution; format: cell-based; details: Candida tropicalis
Method: as §1

C. albicans AIDS 68 = assay: MIC and MFC by microbroth dilution; format: cell-based; details: Candida albicans, AIDS68
Method: as §1

MRSA biofilm [17] = assay: Biofilm biomass by crystal violet (CV) assay; format: cell-based, Staphylococcus aureus
Method: as §2, §3

S. aureus biofilm [18] = assay: Biofilm biomass by crystal violet (CV) assay; format: cell-based, Staphylococcus aureus; details: substance alone at MIC
Method: as §2, §3

[19] = biofilm in formation, sub-MIC concentrations alone or in combination (Table 5), listed as C
[20] = preformed biofilm (24 h), substance alone at MIC
[21] = preformed biofilm, sub-MIC concentrations alone or in combination (Table 5), listed as C
[22] = biofilm in formation (3 h), substance alone at MIC

With Cc1ccc(C(C)C)cc1O [Carvacrol, 2‐methyl‐5‐isopropyl phenol] the MBC [1] was 125 µg/mL (≈ 832 µM), the MIC ([1]; 24 h) was 125 µg/mL (≈ 832 µM) and the MBC [2] was 125 µg/mL (≈ 832 µM). For the same compound, the MIC ([2]; 24 h) was 125 µg/mL (≈ 832 µM), the MBC ([3]; ATCC6538) was 125 µg/mL (≈ 832 µM) and the MIC ([3]; ATCC6538, 24 h) was 125 µg/mL (≈ 832 µM). For the same compound, the MBC [4] was 125 µg/mL (≈ 832 µM), the MIC ([4]; 24 h) was 125 µg/mL (≈ 832 µM) and the “Percentage of biomass reduction” value (C. glabrata biofilm [5]; [19]) was 64.9%. The “Percentage of biomass reduction” value (C. glabrata biofilm [5]; [20]) was 52.9%, the “Percentage of biomass reduction” value (C. glabrata biofilm [5]; [21]) was 44.3% and the “Percentage of biomass reduction” value (C. tropicalis biofilm [6]; [19]) was 25.3%. The “Percentage of biomass reduction” value (C. tropicalis biofilm [6]; [20]) was 57.4%, the “Percentage of biomass reduction” value (C. tropicalis biofilm [6]; [21]) was 20.8% and the “Percentage of biomass reduction” value (C. krusei biofilm; biofilm in formation (3 h)) was 18% and 18.4%. The “Percentage of biomass reduction” value (C. krusei biofilm; preformed biofilm (24 h)) was 39.2%, the “Percentage of metabolic activity reduction” value (C. tropicalis biofilm [7]; [22]) was 88.7% and the “Percentage of metabolic activity reduction” value (C. tropicalis biofilm [7]; [19]) was 35.0%. The “Percentage of metabolic activity reduction” value (C. tropicalis biofilm [7]; [20]) was 72.8%, the “Percentage of metabolic activity reduction” value (C. tropicalis biofilm [7]; [21]) was 26.1% and the “Percentage of metabolic activity reduction” value (E. coli biofilm [8]; biofilm in formation (4 h)) was 62%. The “Percentage of metabolic activity reduction” value (E. coli biofilm [8]; preformed biofilm (24 h)) was 28.5%, the “Percentage of metabolic activity reduction” value (ESBL-Ec biofilm [9]; biofilm in formation (4 h)) was 57% and the “Percentage of metabolic activity reduction” value (ESBL-Ec biofilm [9]; preformed biofilm (24 h)) was 22%. For the same compound, the “Percentage of biomass reduction” value (E. coli biofilm [10]; biofilm in formation (4 h)) was 70.6%, the “Percentage of biomass reduction” value (E. coli biofilm [10]; preformed biofilm (24 h)) was 62.2% and the “Percentage of biomass reduction” value (ESBL-Ec biofilm [11]; biofilm in formation (4 h)) was 55.9%. The “Percentage of biomass reduction” value (ESBL-Ec biofilm [11]; preformed biofilm (24 h)) was 59.6%, the “Percentage of biomass reduction” value (C. albicans biofilm [12]; [19]) was 53.5% and the “Percentage of biomass reduction” value (C. albicans biofilm [12]; [20]) was 36%. The “Percentage of biomass reduction” value (C. albicans biofilm [12]; [21]) was 29.6%, the MFC (C. krusei 44956) was 500 µg/mL (≈ 3330 µM) and the MIC (C. krusei 44956) was 500 µg/mL (≈ 3330 µM). For the same compound, the “Percentage of metabolic activity reduction” value (MRSA biofilm [13]; biofilm in formation (4 h)) was 24.6%, the “Percentage of metabolic activity reduction” value (MRSA biofilm [13]; preformed biofilm (24 h)) was 45.6% and the “Percentage of metabolic activity reduction” value (S. aureus biofilm [14]; biofilm in formation (4 h)) was 54.9%. The “Percentage of metabolic activity reduction” value (S. aureus biofilm [14]; preformed biofilm (24 h)) was 88%, the “Percentage of metabolic activity reduction” value (C. glabrata biofilm [15]; [22]) was 92% and the “Percentage of metabolic activity reduction” value (C. glabrata biofilm [15]; [19]) was 70%. For the same compound, the “Percentage of metabolic activity reduction” value (C. glabrata biofilm [15]; [20]) was 91.0%, the “Percentage of metabolic activity reduction” value (C. glabrata biofilm [15]; [21]) was 51.2% and the MFC (C. glabrata DSY562) was 500 µg/mL (≈ 3330 µM). The MIC (C. glabrata DSY562) was 250 µg/mL (≈ 1660 µM), the “Percentage of metabolic activity reduction” value (C. albicans biofilm [16]; [22]) was 91% and the “Percentage of metabolic activity reduction” value (C. albicans biofilm [16]; [19]) was 55.1%. For the same compound, the “Percentage of metabolic activity reduction” value (C. albicans biofilm [16]; [20]) was 93%, the “Percentage of metabolic activity reduction” value (C. albicans biofilm [16]; [21]) was 44.9% and the MFC (C. tropicalis 45,615) was 500 µg/mL (≈ 3330 µM). It also gave an MIC (C. tropicalis 45,615) of 500 µg/mL (≈ 3330 µM), an MFC (C. albicans AIDS 68) of 500 µg/mL (≈ 3330 µM) and an MIC (C. albicans AIDS 68) of 250 µg/mL (≈ 1660 µM). For the same compound, the “Percentage of biomass reduction” value (MRSA biofilm [17]; biofilm in formation (4 h), substance alone at MIC) was 26.7%, the “Percentage of biomass reduction” value (MRSA biofilm [17]; biofilm in formation, sub-MIC concentrations alone or in combination (Table 5)) was 30% and the “Percentage of biomass reduction” value (MRSA biofilm [17]; [20]) was 58%. The “Percentage of biomass reduction” value (S. aureus biofilm [18]; biofilm in formation (4 h)) was 56.2% and the “Percentage of biomass reduction” value (S. aureus biofilm [18]; preformed biofilm (24 h)) was 71.5%.
